For 31 molecules, IC50 results are on record in patent US8278452B2, “Heterocyclic compounds and compositions as c-kit and PDGFR kinase inhibitors” (IRM LLC, priority 2008, dated 2012).

Broadly, the IC50 is the concentration at which inhibition is half-maximal. Read a high IC50 as a need for much substance.

This experiment concerns Mo7e cells which endogenously express c-kit. Briefly: Mo7e assay: inhibition of SCF dependent proliferation (MTT). Particulars: Table 1; SCF stimulated Mo7e cells, 48 hours, MTT. The class given is cell-based. As to the method: The compounds described herein are tested for inhibition of SCF dependent proliferation using Mo7e cells which endogenously express c-kit in a 96 well format. Two-fold serially diluted test compounds (Cmax=10 μM) are evaluated for their antiproliferative activity of Mo7e cells stimulated with human recombinant SCF. After 48 hours of incubation at 37° C., cell viability is measured by using a MTT colorimetric assay from Promega. IC50 values for compounds of the invention are quoted in table 1, supra.
The molecule `Cc1cc2c(cn1)cc(-c1cc(Nc3noc(-c4ncccc4C)n3)ccc1C)c(=O)n2C` [Compound A79, 1,7-dimethyl-3-(2-methyl-5-{[5-(3-methylpyridin-2-yl)-1,2,4-oxadiazol-3-yl]amino}phenyl)-1,2-dihydro-1,6-naphthyridin-2-one] displayed an IC50 of 94 nM.

Molecule `Cc1cc2c(cn1)cc(-c1cc(Nc3noc(C4(C(F)(F)F)CC4)n3)ccc1C)c(=O)n2C` [Compound A58, 1,7-dimethyl-3-(2-methyl-5-(5-(1-(trifluoromethyl)cyclopropyl)-1,2,4-oxadiazol-3-ylamino)phenyl)-1,6-naphthyridin-2(1H)-one] came in with an IC50 of 399 nM.

`Cc1cc2c(cn1)cc(-c1cc(Nc3noc(CC(C)(C)C)n3)ccc1C)c(=O)n2C` [Compound A19, 3-(5-{[5-(2,2-dimethylpropyl)-1,2,4-oxadiazol-3-yl]amino}-2-methylphenyl)-1,7-dimethyl-1,2-dihydro-1,6-naphthyridin-2-one] returned an IC50 of 216 nM.

With `Cc1ccc(Nc2noc(-c3ccccc3)n2)cc1-c1cc2c[n+]([O-])c(C)cc2n(C)c1=O` [Compound A86, 1,7-dimethyl-3-{2-methyl-5-[(5-phenyl-1,2,4-oxadiazol-3-yl)amino]phenyl}-6-oxido-2-oxo-1,2-dihydro-1,6-naphthyridin-6-ium], the IC50 is 216 nM.

On to `COc1ccc(-c2nnc(Nc3ccc(C)c(-c4cc5cnc(C)cc5n(C)c4=O)c3)o2)cc1` [Compound B2, 3-(5-{[5-(4-methoxyphenyl)-1,3,4-oxadiazol-2-yl]amino}-2-methylphenyl)-1,7-dimethyl-1,2-dihydro-1,6-naphthyridin-2-one], for which half-maximal inhibition (IC50) required 85 nM.

`Cc1cc2c(cn1)cc(-c1cc(Nc3noc(-c4cccnc4F)n3)ccc1C)c(=O)n2C` [Compound A91, 3-(5-{[5-(2-fluoropyridin-3-yl)-1,2,4-oxadiazol-3-yl]amino}-2-methylphenyl)-1,7-dimethyl-1,2-dihydro-1,6-naphthyridin-2-one] displayed an IC50 of 244 nM.

In turn, `Cc1cc2c(cn1)cc(-c1cc(Nc3noc(C4CCOC4)n3)ccc1C)c(=O)n2C` (stereo not shown) [Compound A78, 1,7-dimethyl-3-(2-methyl-5-{[5-(oxolan-3-yl)-1,2,4-oxadiazol-3-yl]amino}phenyl)-1,2-dihydro-1,6-naphthyridin-2-one] registered an IC50 of 120 nM.

`Cc1cc2c(cn1)cc(-c1cc(Nc3nnc(CC(C)C)o3)ccc1C)c(=O)n2C` [Compound B5, 3-(5-(5-isobutyl-1,3,4-oxadiazol-2-ylamino)-2-methylphenyl)-1,7-dimethyl-1,6-naphthyridin-2(1H)-one] returned an IC50 of 108 nM.

With `Cc1cc2c(cn1)cc(-c1cc(Nc3noc(-c4ccc(Cl)cn4)n3)ccc1C)c(=O)n2C` [Compound A26, 3-(5-{[5-(5-chloropyridin-2-yl)-1,2,4-oxadiazol-3-yl]amino}-2-methylphenyl)-1,7-dimethyl-1,2-dihydro-1,6-naphthyridin-2-one], the IC50 came out at 27 nM.

`Cc1cc2c(cn1)cc(-c1cc(Nc3noc(-c4ccccc4)n3)ccc1C)c(=O)n2C` [Compound A7, 1,7-dimethyl-3-(2-methyl-5-(5-phenyl-1,2,4-oxadiazol-3-ylamino)phenyl)-1,6-naphthyridin-2(1H)-one] displayed an IC50 of 76 nM.

Molecule `CCc1nc(Nc2ccc(C)c(-c3cc4cnc(C)cc4n(C)c3=O)c2)no1` [Compound A5, 3-(5-(5-ethyl-1,2,4-oxadiazol-3-ylamino)-2-methylphenyl)-1,7-dimethyl-1,6-naphthyridin-2(1H)-one] registered an IC50 of 49 nM.

The molecule `CCC(CC)c1nc(Nc2ccc(C)c(-c3cc4cnc(C)cc4n(C)c3=O)c2)no1` [Compound A31, 1,7-dimethyl-3-(2-methyl-5-{[5-(pentan-3-yl)-1,2,4-oxadiazol-3-yl]amino}phenyl)-1,2-dihydro-1,6-naphthyridin-2-one] displayed an IC50 of 105 nM.

The molecule `Cc1cc2c(cn1)cc(-c1cc(Nc3noc(C4CCO4)n3)ccc1C)c(=O)n2C` (stereo not shown) [Compound A66, 1,7-dimethyl-3-(2-methyl-5-{[5-(oxetan-2-yl)-1,2,4-oxadiazol-3-yl]amino}phenyl)-1,2-dihydro-1,6-naphthyridin-2-one] had an IC50 of 143 nM.

Turning to `Cc1cc2c(cn1)cc(-c1cc(Nc3noc(-c4ccc(CN)cc4)n3)ccc1C)c(=O)n2C` [Compound A90, 3-[5-({5-[4-(aminomethyl)phenyl]-1,2,4-oxadiazol-3-yl}amino)-2-methylphenyl]-1,7-dimethyl-1,2-dihydro-1,6-naphthyridin-2-one], the IC50 amounted to 434 nM.

Molecule `Cc1cc2c(cn1)cc(-c1cc(Nc3noc(-c4ccccc4C#N)n3)ccc1C)c(=O)n2C` [Compound A38, 2-(3-{[3-(1,7-dimethyl-2-oxo-1,2-dihydro-1,6-naphthyridin-3-yl)-4-methylphenyl]amino}-1,2,4-oxadiazol-5-yl)benzonitrile] came in with an IC50 of 325 nM.

Molecule `Cc1cc2c(cn1)cc(-c1cc(Nc3noc(-c4nccn4C)n3)ccc1C)c(=O)n2C` [Compound A22, 1,7-dimethyl-3-(2-methyl-5-{[5-(1-methyl-1H-imidazol-2-yl)-1,2,4-oxadiazol-3-yl]amino}phenyl)-1,2-dihydro-1,6-naphthyridin-2-one] returned a half-inhibitory concentration (IC50) of 360 nM.

`Cc1cc2c(cn1)cc(-c1cc(Nc3nnc(CC(C)(C)C)[nH]3)ccc1C)c(=O)n2C` [Compound C5, 3-(5-{[5-(2,2-dimethylpropyl)-4H-1,2,4-triazol-3-yl]amino}-2-methylphenyl)-1,7-dimethyl-1,2-dihydro-1,6-naphthyridin-2-one] returned an IC50 of 320 nM.

Molecule `Cc1cc2c(cn1)cc(-c1cc(Nc3nnc(C4CC4)o3)ccc1C)c(=O)n2C` [Compound B9, 3-{5-[(5-cyclopropyl-1,3,4-oxadiazol-2-yl)amino]-2-methylphenyl}-1,7-dimethyl-1,2-dihydro-1,6-naphthyridin-2-one] showed a half-maximal inhibitory concentration (IC50) of 334 nM.

`Cc1cc2c(cn1)cc(-c1cc(Nc3nnc(-c4ccccc4)s3)ccc1C)c(=O)n2C` [Compound H1, 1,7-dimethyl-3-(2-methyl-5-(5-phenyl-1,3,4-thiadiazol-2-ylamino)phenyl)-1,6-naphthyridin-2(1H)-one]: inhibition was half-maximal at 552 nM (IC50).

In the case of `Cc1ccc(-c2nc(Nc3ccc(C)c(-c4cc5cnc(C)cc5n(C)c4=O)c3)no2)cn1` [Compound A51, 1,7-dimethyl-3-(2-methyl-5-(5-(6-methylpyridin-3-yl)-1,2,4-oxadiazol-3-ylamino)phenyl)-1,6-naphthyridin-2(1H)-one], the IC50 came out at 119 nM.

Consider `Cc1cc2c(cn1)cc(-c1cc(Nc3noc(C4(C)CC4)n3)ccc1C)c(=O)n2C` [Compound A34, 1,7-dimethyl-3-(2-methyl-5-(5-(1-methylcyclopropyl)-1,2,4-oxadiazol-3-ylamino)phenyl)-1,6-naphthyridin-2(1H)-one], for which the IC50 turned out to be 83 nM.

Take `Cc1cc2c(cn1)cc(-c1cc(Nc3noc(-c4cccc(Cl)n4)n3)ccc1C)c(=O)n2C` [Compound A49, 3-(5-{[5-(6-chloropyridin-2-yl)-1,2,4-oxadiazol-3-yl]amino}-2-methylphenyl)-1,7-dimethyl-1,2-dihydro-1,6-naphthyridin-2-one]: the IC50 was found to be 333 nM.

Molecule `Cc1cc2c(cn1)cc(-c1cc(Nc3nc(C(C)C)no3)ccc1C)c(=O)n2C` [Compound E3, 3-(5-(3-isopropyl-1,2,4-oxadiazol-5-ylamino)-2-methylphenyl)-1,7-dimethyl-1,6-naphthyridin-2(1H)-one] displayed an IC50 of 181 nM.

`CC(=NO)c1cc(Nc2ccc(C)c(-c3cc4cnc(C)cc4n(C)c3=O)c2)no1` [Compound D13] showed an IC50 of 476 nM.

The molecule `Cc1cc2c(cn1)cc(-c1cc(Nc3noc(-c4nc(C)oc4C)n3)ccc1C)c(=O)n2C` [Compound A45, 3-(5-{[5-(2,5-dimethyl-1,3-oxazol-4-yl)-1,2,4-oxadiazol-3-yl]amino}-2-methylphenyl)-1,7-dimethyl-1,2-dihydro-1,6-naphthyridin-2-one] gave an IC50 of 263 nM.

`Cc1ccc(-c2nc(Nc3ccc(C)c(-c4cc5cnc(C)cc5n(C)c4=O)c3)no2)cc1` [Compound A13, 1,7-dimethyl-3-(2-methyl-5-{[5-(4-methylphenyl)-1,2,4-oxadiazol-3-yl]amino}phenyl)-1,2-dihydro-1,6-naphthyridin-2-one] displayed an IC50 of 13 nM.

`Cc1cc2c(cn1)cc(-c1cc(Nc3noc(-c4ccccc4Cl)n3)ccc1C)c(=O)n2C` [Compound A8, 3-(5-{[5-(2-chlorophenyl)-1,2,4-oxadiazol-3-yl]amino}-2-methylphenyl)-1,7-dimethyl-1,2-dihydro-1,6-naphthyridin-2-one] gave an IC50 of 158 nM.

For the molecule `Cc1cc2c(cn1)cc(-c1cc(Nc3noc(-c4cccn4C)n3)ccc1C)c(=O)n2C` [Compound A21, 1,7-dimethyl-3-(2-methyl-5-{[5-(1-methyl-1H-pyrrol-2-yl)-1,2,4-oxadiazol-3-yl]amino}phenyl)-1,2-dihydro-1,6-naphthyridin-2-one], 129 nM corresponded to half-maximal inhibition (IC50).

`Cc1cc2c(cn1)cc(-c1cc(Nc3noc(-c4ccc(C(F)(F)F)nc4)n3)ccc1C)c(=O)n2C` [Compound A4, 1,7-dimethyl-3-[2-methyl-5-({5-[6-(trifluoromethyl)pyridin-3-yl]-1,2,4-oxadiazol-3-yl}amino)phenyl]-1,2-dihydro-1,6-naphthyridin-2-one] displayed an IC50 of 472 nM.

`Cc1cc2c(cn1)cc(-c1cc(Nc3noc([C@H]4CCCO4)n3)ccc1C)c(=O)n2C` [Compound A75, 1,7-dimethyl-3-[2-methyl-5-({5-[(2R)-oxolan-2-yl]-1,2,4-oxadiazol-3-yl}amino)phenyl]-1,2-dihydro-1,6-naphthyridin-2-one] showed an IC50 of 40 nM.

In turn, `Cc1cc2c(cn1)cc(-c1cc(Nc3noc(C(O)C(C)C)n3)ccc1C)c(=O)n2C` (stereo in doubt) [Compound A93, 3-[5-({5-[(1S)-1-hydroxy-2-methylpropyl]-1,2,4-oxadiazol-3-yl}amino)-2-methylphenyl]-1,7-dimethyl-1,2-dihydro-1,6-naphthyridin-2-one] returned an IC50 of 283 nM.
